“And” between values parts separate entries of the source, which are not always exact repeats. Equal entries are not always repeated.
Tested on: 874868-142-R-J2-PDC complex spheroids, growth % test/control
Assay: Anticancer human tumor 874868-142-R-J2-PDC patient-derived head and neck squamous carcinoma cell line growth inhibition [CLK]
Details: for viability, T/C: stronger effect = lower value; active = viability on the fitted dose curve at most 10% of control; inactive = the rest
Outline: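 Patient-derived tumor cells grown as complex spheroids with HUVEC endothelial cells and mesenchymal stem cells, treated with drug combinations. Concentrations descend in half-log steps from near clinical Cmax, or from 10 microM if Cmax unknown.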

[1] = curve of first compound, second compound 0.0316 µM
[2] = curve of first compound, second compound 0.1 µM
[3] = curve of first compound, second compound 0.316 µM
[4] = curve of first compound, second compound 1 µM
[5] = curve of first compound, second compound 3.16 µM
[6] = curve of first compound, second compound 10 µM
[7] = second compound 0.0316 µM, first compound 0.0316 µM
[8] = second compound 0.0316 µM, first compound 0.1 µM
[9] = second compound 0.0316 µM, first compound 0.316 µM
[10] = second compound 0.0316 µM, first compound 1 µM
[11] = second compound 0.0316 µM, first compound 3.16 µM
[12] = second compound 0.0316 µM, first compound 10 µM
[13] = second compound 0.1 µM, first compound 0.0316 µM
[14] = second compound 0.1 µM, first compound 0.1 µM
[15] = second compound 0.1 µM, first compound 0.316 µM
[16] = second compound 0.1 µM, first compound 1 µM
[17] = second compound 0.1 µM, first compound 3.16 µM
[18] = second compound 0.1 µM, first compound 10 µM
[19] = second compound 0.316 µM, first compound 0.0316 µM
[20] = second compound 0.316 µM, first compound 0.1 µM
[21] = second compound 0.316 µM, first compound 0.316 µM
[22] = second compound 0.316 µM, first compound 1 µM
[23] = second compound 0.316 µM, first compound 3.16 µM
[24] = second compound 0.316 µM, first compound 10 µM
[25] = second compound 1 µM, first compound 0.0316 µM
[26] = second compound 1 µM, first compound 0.1 µM
[27] = second compound 1 µM, first compound 0.316 µM
[28] = second compound 1 µM, first compound 1 µM
[29] = second compound 1 µM, first compound 3.16 µM
[30] = second compound 1 µM, first compound 10 µM
[31] = second compound 3.16 µM, first compound 0.0316 µM
[32] = second compound 3.16 µM, first compound 0.1 µM
[33] = second compound 3.16 µM, first compound 0.316 µM
[34] = second compound 3.16 µM, first compound 1 µM
[35] = second compound 3.16 µM, first compound 3.16 µM
[36] = second compound 3.16 µM, first compound 10 µM
[37] = second compound 10 µM, first compound 0.0316 µM
[38] = second compound 10 µM, first compound 0.1 µM
[39] = second compound 10 µM, first compound 0.316 µM
[40] = second compound 10 µM, first compound 1 µM
[41] = second compound 10 µM, first compound 3.16 µM
[42] = second compound 10 µM, first compound 10 µM
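Also: spheroids exposed to the compounds for 7 days.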
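For viability, T/C in this document: 100% = DMSO vehicle control viability.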

CC(C)CC(NC(=O)C(Cc1ccccc1)NC(=O)c1cnccn1)B(O)O (stereo not given) + CNC(=O)c1ccc(Nc2nc(OC3CCCC3)c3c(-c4ccc5nc(C)oc5c4)c[nH]c3n2)c(OC)c1
active: viability, T/C (second compound 0.0316 µM, first compound 0.00949 µM) 0.57% | viability, T/C (second compound 0.0316 µM, first compound 0.03 µM) 0.3% | viability, T/C (second compound 0.0316 µM, first compound 0.0949 µM) 0.21% | viability, T/C (second compound 0.0316 µM, first compound 0.3 µM) 0.23% | viability, T/C (second compound 0.1 µM, first compound 0.00949 µM) 1.32% | viability, T/C (second compound 0.1 µM, first compound 0.03 µM) 0.44% | viability, T/C (second compound 0.1 µM, first compound 0.0949 µM) 0.2% | viability, T/C (second compound 0.1 µM, first compound 0.3 µM) 4.13% | viability, T/C (second compound 0.316 µM, first compound 0.00949 µM) 6.3% | viability, T/C (second compound 0.316 µM, first compound 0.03 µM) 0.22% | viability, T/C (second compound 0.316 µM, first compound 0.0949 µM) 0.26% | viability, T/C (second compound 0.316 µM, first compound 0.3 µM) 5.41% | viability, T/C (second compound 1 µM, first compound 0.00949 µM) 0.47% | viability, T/C (second compound 1 µM, first compound 0.03 µM) 0.24% | viability, T/C (second compound 1 µM, first compound 0.0949 µM) 5.77% | viability, T/C (second compound 1 µM, first compound 0.3 µM) 17.3% | viability, T/C (second compound 3.16 µM, first compound 0.00949 µM) 0.47% | viability, T/C (second compound 3.16 µM, first compound 0.03 µM) 0.19% | viability, T/C (second compound 3.16 µM, first compound 0.0949 µM) 7.41% | viability, T/C (second compound 3.16 µM, first compound 0.3 µM) 10.4% | viability, T/C (second compound 10 µM, first compound 0.00949 µM) 3.06% | viability, T/C (second compound 10 µM, first compound 0.03 µM) 0.36% | viability, T/C (second compound 10 µM, first compound 0.0949 µM) 3.69% | viability, T/C (second compound 10 µM, first compound 0.3 µM) 6.49%
inactive: viability, T/C (second compound 0.0316 µM, first compound 0.000949 µM) 96.8% | viability, T/C (second compound 0.0316 µM, first compound 0.003 µM) 76.4% | viability, T/C (second compound 0.1 µM, first compound 0.000949 µM) 89.5% | viability, T/C (second compound 0.1 µM, first compound 0.003 µM) 80.7% | viability, T/C (second compound 0.316 µM, first compound 0.000949 µM) 66.8% | viability, T/C (second compound 0.316 µM, first compound 0.003 µM) 70.8% | viability, T/C (second compound 1 µM, first compound 0.000949 µM) 47.7% | viability, T/C (second compound 1 µM, first compound 0.003 µM) 31.9% | viability, T/C (second compound 3.16 µM, first compound 0.000949 µM) 45.3% | viability, T/C (second compound 3.16 µM, first compound 0.003 µM) 21.6% | viability, T/C (second compound 10 µM, first compound 0.000949 µM) 38.6% | viability, T/C (second compound 10 µM, first compound 0.003 µM) 20%
4.69 nM: IC50 [2]
< 0.949 nM: IC50 [4] | IC50 [5] | IC50 [6]
4.24 nM: IC50 [3]
4.48 nM: IC50 [1]

CC(CO)NC(=O)c1cc(-c2ccc(Cl)cc2)nn(-c2cnn(C)c2)c1=O (stereo not given)
> 10000 nM: IC50 (curve of compound)
inactive: viability, T/C (compound 0.0316 µM) 102% and 93.8% | viability, T/C (compound 0.1 µM) 95.6% and 100% | viability, T/C (compound 0.316 µM) 97.7% and 89.3% | viability, T/C (compound 1 µM) 101% and 94.3% | viability, T/C (compound 3.16 µM) 102% and 94.3% | viability, T/C (compound 10 µM) 95.6% and 99.3%

C=CC(=O)N1CCN(c2nc(=O)n(-c3c(C)ccnc3C(C)C)c3nc(-c4c(O)cccc4F)c(F)cc23)C(C)C1 (stereo not given) + CN1CCN(c2cc(C(=O)Nc3cc4cc(-c5cnn(C)c5)ccc4cn3)ccn2)CC1
< 31.6 nM: IC50 [3] | IC50 [4] | IC50 [5] | IC50 [6]
inactive: viability, T/C [7] 86.4% | viability, T/C [8] 98.4% | viability, T/C [9] 96.1% | viability, T/C [10] 131% | viability, T/C [11] 129% | viability, T/C [12] 125% | viability, T/C [13] 81% | viability, T/C [14] 73.3% | viability, T/C [15] 82.2% | viability, T/C [16] 86.3% | viability, T/C [17] 93.9% | viability, T/C [18] 109% | viability, T/C [19] 16.9% | viability, T/C [20] 16.9% | viability, T/C [21] 21.9% | viability, T/C [22] 11.1% | viability, T/C [23] 17.8% | viability, T/C [24] 12.2%
> 10000 nM: IC50 [1] | IC50 [2]
active: viability, T/C [25] 0.5% | viability, T/C [26] 0.38% | viability, T/C [27] 0.54% | viability, T/C [28] 2.26% | viability, T/C [29] 0.49% | viability, T/C [30] 0.41% | viability, T/C [31] 0.17% | viability, T/C [32] 2.77% | viability, T/C [33] 1.11% | viability, T/C [34] 0.43% | viability, T/C [35] 0.45% | viability, T/C [36] 0.24% | viability, T/C [37] 0.68% | viability, T/C [38] 0.21% | viability, T/C [39] 1.43% | viability, T/C [40] 0.18% | viability, T/C [41] 0.17% | viability, T/C [42] 3.04%

Nc1ccn(C2OC(CO)C(O)C2(F)F)c(=O)n1 (stereo not given) + CN1CCN(c2cc(C(=O)Nc3cc4cc(-c5cnn(C)c5)ccc4cn3)ccn2)CC1
inactive: viability, T/C [7] 80.5% | viability, T/C [8] 72.9% | viability, T/C [9] 58.7% | viability, T/C [10] 37.6% | viability, T/C [11] 20.5% | viability, T/C [12] 26.1% | viability, T/C [13] 62.2% | viability, T/C [14] 70.5% | viability, T/C [15] 61.4% | viability, T/C [16] 26.8% | viability, T/C [17] 19.9% | viability, T/C [18] 24.1% | viability, T/C [19] 14.3% | viability, T/C [20] 14.6% | viability, T/C [21] 11.8% | viability, T/C [22] 9.83% | viability, T/C [23] 11.6% | viability, T/C [24] 11.8%
463 nM: IC50 [2]
active: viability, T/C [25] 0.24% | viability, T/C [26] 0.22% | viability, T/C [27] 0.33% | viability, T/C [28] 0.18% | viability, T/C [29] 0.28% | viability, T/C [30] 0.2% | viability, T/C [31] 0.26% | viability, T/C [32] 0.23% | viability, T/C [33] 0.16% | viability, T/C [34] 0.18% | viability, T/C [35] 0.19% | viability, T/C [36] 0.43% | viability, T/C [37] 0.14% | viability, T/C [38] 0.19% | viability, T/C [39] 0.23% | viability, T/C [40] 0.2% | viability, T/C [41] 0.25% | viability, T/C [42] 1.04%
489 nM: IC50 [1]
< 31.6 nM: IC50 [3] | IC50 [4] | IC50 [5] | IC50 [6]

CC(=O)O[C@H]1C(=O)[C@@]2(C)[C@H]([C@H](OC(=O)c3ccccc3)[C@]3(O)C[C@H](OC(=O)[C@H](O)[C@@H](NC(=O)c4ccccc4)c4ccccc4)C(C)=C1C3(C)C)[C@]1(OC(C)=O)CO[C@@H]1C[C@@H]2O + CN1CCN(c2cc(C(=O)Nc3cc4cc(-c5cnn(C)c5)ccc4cn3)ccn2)CC1
inactive: viability, T/C [7] 26.6% | viability, T/C [8] 18.9% | viability, T/C [9] 19.1% | viability, T/C [10] 22% | viability, T/C [11] 21.3% | viability, T/C [12] 27.4% | viability, T/C [13] 28.1% | viability, T/C [14] 19.6% | viability, T/C [15] 20% | viability, T/C [16] 18.1% | viability, T/C [17] 14.7% | viability, T/C [18] 27.9% | viability, T/C [19] 13% | viability, T/C [20] 15.6% | viability, T/C [21] 15.3% | viability, T/C [22] 9.43% | viability, T/C [23] 17.7% | viability, T/C [24] 17.3%
active: viability, T/C [25] 0.22% | viability, T/C [26] 0.23% | viability, T/C [27] 0.5% | viability, T/C [28] 0.59% | viability, T/C [29] 0.23% | viability, T/C [30] 0.27% | viability, T/C [31] 0.16% | viability, T/C [32] 0.16% | viability, T/C [33] 2.82% | viability, T/C [34] 0.21% | viability, T/C [35] 0.18% | viability, T/C [36] 0.15% | viability, T/C [37] 0.12% | viability, T/C [38] 0.18% | viability, T/C [39] 1.66% | viability, T/C [40] 0.18% | viability, T/C [41] 2.53% | viability, T/C [42] 1.6%
< 31.6 nM: IC50 [1] | IC50 [2] | IC50 [3] | IC50 [4] | IC50 [5] | IC50 [6]
